Results published in BindingDB's records for patent US20240109853 (Shanghai Yao Yuan Biotechnology Co., 2024).
Values joined by “and” are separate entries in the source; they are usually repeats but may differ in a detail not shown here. Equal values may be shown once.

The molecules below were run against Alpha-protein kinase 1 (Homo sapiens, UniProt Q96QP1) (assay: ALPK1 In Vitro Kinase Assay).
Procedure: ALPK1 kinase activity was measured in an in vitro assay using ADP-Heptose as the ALPK1 ligand and activator of its kinase activity and TIFA protein as the ALPK1 phosphorylation substrate. Since phosphorylated TIFA proteins oligomerize, Homogeneous Time-Resolved Fluorescence (HTRF) was used to measure protein: protein interaction between HA-tagged TIFA proteins as an indicator of TIFA phosphorylation. In brief, dose-response studies were performed with […] in 384-well assay plates. Each well contained 0.1 mg TIFA, ALPK1 (2 nM final concentration in reaction mixture) and kinase buffer (100 mM of HEPES pH 7.4, 4 mM DTT, 40 mM MgCl2, 20 mM of β-Glycerol phosphate disodium salt, 0.4 mM of Na3VO4, 0.16 mg/mL). Titrations of the test compounds were prepared in dimethylsulphoxide (DMSO). The reaction was initiated by addition of ATP and ADP-Heptose.

Alpha-protein kinase 1, sequence (Q96QP1 whole entry): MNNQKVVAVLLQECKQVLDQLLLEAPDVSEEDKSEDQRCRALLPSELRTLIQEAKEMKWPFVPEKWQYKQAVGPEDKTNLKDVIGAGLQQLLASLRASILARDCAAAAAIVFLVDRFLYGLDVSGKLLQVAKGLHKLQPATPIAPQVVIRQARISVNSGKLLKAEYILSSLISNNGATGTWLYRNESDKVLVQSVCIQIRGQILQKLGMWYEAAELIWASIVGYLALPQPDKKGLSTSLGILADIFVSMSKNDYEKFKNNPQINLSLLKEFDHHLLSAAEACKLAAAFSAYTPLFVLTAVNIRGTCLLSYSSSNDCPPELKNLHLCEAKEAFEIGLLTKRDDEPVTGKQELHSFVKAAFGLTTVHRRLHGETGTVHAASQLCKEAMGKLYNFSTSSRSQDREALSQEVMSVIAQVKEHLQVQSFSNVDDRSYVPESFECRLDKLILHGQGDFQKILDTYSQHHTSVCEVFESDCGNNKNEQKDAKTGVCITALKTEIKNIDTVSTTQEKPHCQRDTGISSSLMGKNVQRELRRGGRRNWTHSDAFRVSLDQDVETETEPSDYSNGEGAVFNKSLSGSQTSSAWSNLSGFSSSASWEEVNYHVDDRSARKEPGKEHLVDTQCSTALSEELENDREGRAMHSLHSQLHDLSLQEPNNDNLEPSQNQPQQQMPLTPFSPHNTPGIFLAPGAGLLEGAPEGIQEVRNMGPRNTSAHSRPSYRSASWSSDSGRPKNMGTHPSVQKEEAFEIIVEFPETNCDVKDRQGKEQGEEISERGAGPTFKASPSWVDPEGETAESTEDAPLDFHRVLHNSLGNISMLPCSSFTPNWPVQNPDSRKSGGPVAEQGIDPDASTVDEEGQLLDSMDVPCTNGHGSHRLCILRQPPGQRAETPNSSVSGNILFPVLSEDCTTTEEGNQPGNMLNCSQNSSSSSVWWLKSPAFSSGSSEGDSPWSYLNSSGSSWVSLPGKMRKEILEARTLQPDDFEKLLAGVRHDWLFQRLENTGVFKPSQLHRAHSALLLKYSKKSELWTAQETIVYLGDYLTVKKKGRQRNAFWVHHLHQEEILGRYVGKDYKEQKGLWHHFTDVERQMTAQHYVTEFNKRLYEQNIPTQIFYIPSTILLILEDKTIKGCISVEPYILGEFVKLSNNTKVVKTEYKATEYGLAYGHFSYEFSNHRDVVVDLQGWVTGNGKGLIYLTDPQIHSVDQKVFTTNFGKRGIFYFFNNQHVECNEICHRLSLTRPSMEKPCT

SMILES | IC50
COc1ccc(C(C)(C)c2csc(NC(=O)NCc3cc(F)c(C4CCNCC4)c(F)c3)n2)cc1 [US20240109853, Compound A151] | 43 nM
C#C[C@@](C)(c1ccc(Cl)cc1)c1csc(NC(=O)NCC(C)O)n1 (some centres not stated) [US20240109853, Compound A317] | 85 nM and 156 nM
C#C[C@@](C)(c1ccc(Cl)cc1)c1nc(NC(=O)NCCO)sc1Cl [US20240109853, Compound A247] | 408 nM
CC(C)(c1ccc(Br)cc1)c1csc(NC(=O)NCc2ccc(N3CCNCC3)c(Br)c2)n1 [US20240109853, Compound A097] | 87 nM
C#C[C@@](C)(c1ccc(Cl)cc1)c1csc(NC(=O)NC(C)CO)n1 (some centres not stated) [US20240109853, Compound A312] | 545 nM and 614 nM
COc1ccc(C(C)(C)c2csc(NC(=O)c3ccc(N4CC5CC(C4)N5)cc3)n2)cc1 [US20240109853, Compound B048] | 73 nM
C#C[C@](C)(c1ccc(Cl)cc1)c1nc(NC(=O)NCCO)sc1Cl [US20240109853, Compound A248] | 1290 nM
C#C[C@](C)(c1ccc(Cl)cc1)c1csc(NC(=O)NCC(C)O)n1 (some centres not stated) [US20240109853, Compound A316] | 421 nM and 534 nM
C#C[C@](C)(c1ccc(Cl)cc1)c1csc(NC(=O)NC(C)CO)n1 (some centres not stated) [US20240109853, Compound A314] | 261 nM and 81 nM
C#CC(C)(c1ccc(Cl)cc1)c1csc(NC(=N)N)n1 (configuration not stated) [US20240109853, Compound A276] | 345 nM
CC(C)(c1ccc(Br)cc1)c1csc(NC(=O)NCc2ccc(C3CCNCC3)c(F)c2)n1 [US20240109853, Compound A222] | 56 nM
C#CC(C)(c1ccc(Cl)cc1)c1csc(NC(=O)N2CC(N)C2)n1 (configuration not stated) [US20240109853, Compound A275] | 503 nM and 246 nM
